Measurements published in patent publication US12502392B2, “DRG-MDM2-6 for use as a novel mouse double minute 2 (MDM2) inhibitor” (BAHCESEHIR UNIVERSITESI, priority 2021, dated 2025).

Experiments:
[1] = test system: MDA-MB231 breast cancer cell line; experiment: MTT cell viability assay (IC50); format: cell-based; conditions: Homo sapiens, MDA-MB-231; MDA-MB231 cells, single dose of treatment, 10^−9 to 10^−4 M, 570 nm absorbance, FIG. 1; read-out: IC50 (half-maximal inhibitory concentration)
Protocol: HCT 116 colon cancer and MDA-MB231 breast cancer cell lines are used in cell culture experiments.
Cells were treated with high-glucose DMEM medium (Biosera) supplemented with 10% FBS (Gibco) and 1× penicillin/streptomycin (Multicell). The assay was designed to contain 10,000 cells for each well of 24-well cell culture plates before being treated with inhibitors.
Compound of formula I was dissolved with DMSO as 20 mM stock. 24 hours later, the solution was diluted in DMEM with 10% FBS and final concentration of vehicle DMSO was 0.5% at maximum. Therefore, the vehicle group included 0.5% DMSO concentration in experiments. Intensive cultivation of cells causes a decrease in proliferation capacity.
The MTT cell viability assay was used to detect values of half-maximal inhibitory concentration (IC50). Different concentrations of compound of formula I ranging between 10^−9 to 10^−4 M were tested on MDA-MB231 cell lines with single dose of treatment. 570 nm absorbance values were recorded and IC50 values were calculated by dose response-inhibition curves and nonlinear regression analysis on Graphpad Prism 8 software. IC50 value of compound of formula I was determined to be […] (FIG. 1).

[2] = molecular target: MDM2 protein (Homo sapiens, UniProt Q00987); conditions: state of the art statement; cited from earlier work
Sequence of MDM2 protein (Q00987 whole entry, species assumed): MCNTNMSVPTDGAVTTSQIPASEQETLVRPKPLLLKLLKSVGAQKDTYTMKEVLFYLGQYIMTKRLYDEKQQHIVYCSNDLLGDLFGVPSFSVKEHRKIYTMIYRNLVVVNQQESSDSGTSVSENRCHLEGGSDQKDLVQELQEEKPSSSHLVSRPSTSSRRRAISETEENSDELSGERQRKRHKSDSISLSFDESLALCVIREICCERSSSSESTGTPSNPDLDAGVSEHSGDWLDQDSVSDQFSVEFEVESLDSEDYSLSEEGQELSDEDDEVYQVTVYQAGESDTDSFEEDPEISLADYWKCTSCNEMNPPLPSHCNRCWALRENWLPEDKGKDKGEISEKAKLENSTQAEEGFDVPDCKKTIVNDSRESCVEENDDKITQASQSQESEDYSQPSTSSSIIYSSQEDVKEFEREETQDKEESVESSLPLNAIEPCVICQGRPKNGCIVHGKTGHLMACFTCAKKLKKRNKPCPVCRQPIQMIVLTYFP

| IC50 [1] [µM] | Compound | binding affinity to MDM2 relative to a natural p53 peptide [2] [fold] |
| --- | --- | --- |
| 13 | O=C(CCCc1nc2ccccc2c(=O)[nH]1)NC(Cc1c[nH]c2ccccc12)C(=O)O (centres unmarked) [compound of formula I] |  |
|  | MI-319 | 500 |
